Test results taken from article PMC6367362, “MD001, a Novel Peroxisome Proliferator-activated Receptor α/γ Agonist, Improves Glucose and Lipid Metabolism” (Scientific Reports, 2019).

Target: T1, PPARγ (Homo sapiens, UniProt P37231)
T1 construct: HA; made in house
T1 sequence (P37231 1-505): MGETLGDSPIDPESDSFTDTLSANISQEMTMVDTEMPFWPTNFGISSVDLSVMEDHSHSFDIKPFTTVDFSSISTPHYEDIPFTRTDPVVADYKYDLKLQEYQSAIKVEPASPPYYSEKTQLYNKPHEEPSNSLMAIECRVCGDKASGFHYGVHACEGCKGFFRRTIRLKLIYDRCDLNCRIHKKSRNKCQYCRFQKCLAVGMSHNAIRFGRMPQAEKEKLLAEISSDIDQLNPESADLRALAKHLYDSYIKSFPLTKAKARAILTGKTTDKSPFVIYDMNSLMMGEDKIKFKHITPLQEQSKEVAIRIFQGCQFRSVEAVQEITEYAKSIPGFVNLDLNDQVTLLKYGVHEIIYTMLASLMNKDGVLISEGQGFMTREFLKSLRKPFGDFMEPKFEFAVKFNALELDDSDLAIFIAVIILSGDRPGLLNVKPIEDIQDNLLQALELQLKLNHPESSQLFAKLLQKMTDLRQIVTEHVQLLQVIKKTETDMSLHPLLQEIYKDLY
Test: SPR analysis of binding to immobilised HA-PPARγ
Conditions: MD001 31.25-500 μM
Procedure: SPR analysis was performed using a Reichert SR7500DC (Reichert Technologies, Depew, NY, USA). HA-PPARα, HA-PPARβ/δ, and HA-PPARγ were purified as previously described[23] and was immobilised on CMDH chips (Reichert Technologies) according to the manufacturer’s instructions. MD001 was loaded in a dose-dependent manner (31.25, 62.5, 125, 250, and 500 μM) for the SPR assay. The dissociation constant (KD) value was determined using the Scrubber2 program (Informer Technologies, Inc., Los Angeles, CA, USA).

Cc1c(O)cc(O)c2c(-c3ccccc3)c(C(=O)/C=C/c3ccccc3)c(=O)oc12 [MD001]
Kd: 140 ± 30 nM
